Results published in the Kinase Knowledgebase extract (Sharma et al. 2016).

Each compound was assayed against CDK2 (human) (UniProt P24941) (assay: Enzyme Assay).

IC50, ≤ 1 µM:
COC(=O)[C@H](Cc1ccc(O)cc1)NC(=O)c1cc(C(=O)O)c2cc(-c3ccc(C)s3)ccc2n1, COC[C@H](Cc1ccc(O)cc1)NC(=O)c1cc(-c2nnn[nH]2)c2cc(-c3cccc(C(F)(F)F)c3)ccc2n1, COC(=O)[C@H](Cc1ccc(O)cc1)NC(=O)c1cc(C(=O)O)c2cc(-c3ccc(Cl)c(Cl)c3)ccc2n1, COC(=O)[C@H](Cc1ccc(O)cc1)NC(=O)c1cc(C(=O)O)c2cc(-c3ccc(F)c(Cl)c3)ccc2n1, CON=C[C@H](Cc1ccc(O)cc1)NC(=O)c1cc(C(=O)O)c2cc(-c3cccc(C(F)(F)F)c3)ccc2n1, COC[C@H](Cc1ccc(O)cc1)NC(=O)c1cc(C(=O)O)c2cc(-c3cccc(C(F)(F)F)c3)ccc2n1, COC(=O)[C@H](Cc1ccc(O)cc1)NC(=O)c1cc(C(=O)O)c2cc(-c3cc(Cl)cc(Cl)c3)ccc2n1, COC(=O)[C@H](Cc1ccc(O)cc1)NC(=O)c1cc(C(=O)O)c2cc(-c3cc4ccccc4o3)ccc2n1, COC(=O)[C@H](Cc1ccc(O)cc1)NC(=O)c1cc(C(=O)O)c2cc(CCc3ccccc3)ccc2n1, COC[C@H](Cc1ccc(O)cc1)NC(=O)c2cc(C(=O)O)c3cc(ccc3n2)c4cccc(CN5=CC(=CC=C5)O)c4, COC(=O)[C@H](Cc1ccc(O)cc1)NC(=O)c1cc(C(=O)O)c2cc(-c3cccc(-c4ccccc4)c3)ccc2n1, COC(=O)[C@H](Cc1ccc(O)cc1)NC(=O)c1cc(C(=O)O)c2cc(-c3ccc(Oc4ccccc4)cc3)ccc2n1, COC[C@H](Cc1ccc(O)cc1)NC(=O)c1cc(C(=O)O)c2cc(-c3cccc(Cn4ccccc4=O)c3)ccc2n1, CN(C)C(=O)[C@H](Cc1ccc(O)cc1)NC(=O)c1cc(C(=O)O)c2cc(C=Cc3ccc(Cl)cc3)ccc2n1, CCCCCC=Cc1ccc2nc(C(=O)N[C@H](COC)Cc3ccc(O)cc3)cc(C(=O)O)c2c1, COC(=O)[C@H](Cc1ccc(O)cc1)NC(=O)c1cc(NS(C)(=O)=O)c2cc(-c3cccc(C(F)(F)F)c3)ccc2n1, COC(=O)[C@H](Cc1ccc(O)cc1)NC(=O)c1cc(C(=O)O)c2cc(-c3ccc(C)c([N+](=O)[O-])c3)ccc2n1, COC(=O)[C@H](Cc1ccc(O)cc1)NC(=O)c1cc(C(=O)O)c2cc(-c3ccccc3)ccc2n1, O=C(NC(Cc1ccc(O)cc1)C1CCCCC1)c1cc(C(=O)O)c2cc(-c3cccc(C(F)(F)F)c3)ccc2n1 (stereo not given), COC(=O)[C@H](Cc1ccc(O)cc1)NC(=O)c1cc(C(=O)O)c2cc(-c3cc4ccccc4s3)ccc2n1, COC(=O)[C@H](Cc1ccc(O)cc1)NC(=O)c1cc(C(=O)O)c2cc(C=CC(C)(C)C)ccc2n1, CNC(=O)[C@H](Cc1ccc(O)cc1)NC(=O)c1cc(C(=O)O)c2cc(C=Cc3ccc(Cl)cc3)ccc2n1, COC(=O)[C@H](Cc1ccc(O)cc1)NC(=O)c1cc(C(=O)O)c2cc(-c3ccc(F)c(C)c3)ccc2n1, COC[C@H](Cc1ccc(O)cc1)NC(=O)c1cc(C(=O)O)c2cc(C=Cc3ccc(Cl)cc3)ccc2n1, COC(=O)[C@H](Cc1ccc(O)cc1)NC(=O)c1cc(C(=O)O)c2cc(C=Cc3ccc(F)cc3)ccc2n1, CCCCCCc1ccc2nc(C(=O)N[C@@H](Cc3ccc(O)cc3)C(=O)OC)cc(C(=O)O)c2c1, COC(=O)[C@H](Cc1ccc(O)cc1)NC(=O)c1cc(C(=O)O)c2cc(-c3ccc(OC)cc3)ccc2n1, CCCC(Cc1ccc(O)cc1)NC(=O)c1cc(C(=O)O)c2cc(-c3cccc(C(F)(F)F)c3)ccc2n1 (stereo not given), CCCCCCCc1ccc2nc(C(=O)N[C@H](COC)Cc3ccc(O)cc3)cc(C(=O)O)c2c1, COC(=O)[C@H](Cc1ccc(O)cc1)NC(=O)c1cc(C(=O)O)c2cc(CCc3ccc(F)cc3)ccc2n1, COC(=O)[C@H](Cc1ccc(O)cc1)NC(=O)c1cc(C(=O)O)c2cc(-c3cc(C)cc(C)c3)ccc2n1, Cc1cnc([C@H](Cc2ccc(O)cc2)NCc2cc(C(=O)O)c3cc(-c4cccc(C(F)(F)F)c4)ccc3n2)o1, COC(=O)[C@H](Cc1ccc(O)cc1)NC(=O)c1cc(C(=O)O)c2cc(CCc3ccc(C(F)(F)F)cc3)ccc2n1, COC(=O)[C@H](Cc1ccc(O)cc1)NC(=O)c1cc(C(=O)O)c2cc(-c3cccc(C#N)c3)ccc2n1, COC(=O)[C@H](Cc1ccc(O)cc1)NC(=O)c1cc(C(=O)O)c2cc(-c3cccc(C(C)C)c3)ccc2n1, COC(=O)[C@H](Cc1ccc(O)cc1)NC(=O)c1cc(C(=O)O)c2cc(C=Cc3ccc(Cl)cc3)ccc2n1, COC(=O)[C@H](Cc1ccc(O)cc1)NC(=O)c1cc(C(=O)O)c2cc(-c3ccc(C(C)C)cc3)ccc2n1, COC(=O)[C@H](Cc1ccc(O)cc1)NC(=O)c1cc(C(=O)O)c2cc(-c3ccc(Cl)cc3)ccc2n1, O=C(N[C@@H](Cc1ccc(O)cc1)C(=O)NC1CC1)c1cc(C(=O)O)c2cc(C=Cc3ccc(Cl)cc3)ccc2n1, COC[C@H](Cc1ccc(O)cc1)NC(=O)c1cc(S(=O)(=O)O)c2cc(-c3cccc(C(F)(F)F)c3)ccc2n1, COC(=O)[C@H](Cc1ccc(O)cc1)NC(=O)c1cc(C(=O)O)c2cc(CCc3ccc(Cl)cc3)ccc2n1, COC(=O)[C@H](Cc1ccc(O)cc1)NC(=O)c1cc(C(=O)O)c2cc(-c3cccc(C)c3)ccc2n1, COC(=O)[C@H](Cc1ccc(O)cc1)NC(=O)c1cc(C(=O)O)c2cc(-c3cccs3)ccc2n1, COC[C@H](Cc1ccc(O)cc1)NC(=O)c1cc(NS(=O)(=O)C(C)(C)C)c2cc(-c3cccc(COc4ccccn4)c3)ccc2n1, COC(=O)[C@H](Cc1ccc(O)cc1)NC(=O)c1cc(C(=O)O)c2cc(-c3ccc(OC(F)(F)F)cc3)ccc2n1, COC(=O)[C@H](Cc1ccc(O)cc1)NC(=O)c1cc(C(=O)O)c2cc(CCC(C)(C)C)ccc2n1, COC[C@H](Cc1ccc(O)cc1)NC(=O)c1cc(C(=O)O)c2cc(OCc3ccc(C(F)(F)F)cc3)ccc2n1, O=C(N[C@@H](Cc1ccc(O)cc1)c1ncc[nH]1)c1cc(C(=O)O)c2cc(-c3cccc(C(F)(F)F)c3)ccc2n1, COC(=O)[C@H](Cc1ccc(O)cc1)NC(=O)c1cc(C(=O)O)c2cc(-c3cccc([N+](=O)[O-])c3)ccc2n1, CCCCCC#Cc1ccc2nc(C(=O)N[C@H](COC)Cc3ccc(O)cc3)cc(C(=O)O)c2c1
